Results from patent US7892350B2, “Sacrificial agents for fly ash concrete” (Boral Material Technologies Inc., priority 2003, dated 2011).
Where two headings read alike, the source gives them in different places.

Assay: Second sacrificial agent testing protocol: paste air measurements with DDBS (0.0125 wt %) and rating; on Overall performance rating (second protocol rating): key: 0: Fail; 1: Poor; 2: Good; 3: Preferred; 4: Most preferred; on SA Rating (0-4): key: 0: Fail; 1: Poor; 2: Good; 3: Preferred; 4: Most preferred
Procedure: The second sacrificial agents evaluation protocol has been designed to assess the relative potential value of candidate sacrificial agents with a maximum of five paste air measurements.
The first two measurements (of entrained air) are carried out with a standard AEA in a portland cement paste and in a FA:cement paste; these two tests provide reference values which can be used for the relative assessment of a series of sacrificial agents. The other three paste air measurements pertain to the properties and effectiveness of the sacrificial agents.
1. Measurement of the air entrained by a standard air-entraining admixture in a cement paste of fixed composition and fluidity; the latter is a reference system which provides ‘reference’ air entrainment values (‘A’ in FIG. 8).
2. […] The difference between ‘B’ and ‘A’ in FIG. 8 is the reduction in air entrainment due to the presence of the fly ash; this is illustrated as ‘C’ in FIG. 8.
In the present SA testing and evaluation protocol, the fly ash selected should remain the same for the entire set of additives tested, in order to provide reliable relative performance ranking. For the present series of test, the Fly Ash selected was the one identified as B1 in Table 1 below; the physico-chemical properties of this fly ash are reported in Table 1.
In testing for the relative performance of the sacrificial agent, the sacrificial agent dosage was chosen in the range 0-0.1 wt %, which corresponds to typical dosage values observed in paste, mortar and concrete tests reported in Tables 2, 3 and 4 and Tables 7 to 34.
3. Measurement of the air entrainment of the SA, by itself, in a cement-only paste at a dosage of 0.1 wt %; this is illustrated as ‘D’ in FIG. 8.
4. Measurement of the air entrained by DDBS in the FA-cement paste comprising 0.05% wt SA, under the same conditions as described in 2 above. The air entrainment value observed in this system, compared to that observed in the absence of the SA, yields the air recovery due to the SA, and is illustrated schematically as ‘E’ in FIG. 8.
5. Same as in 4 above, but with a higher SA concentration at 0.1 wt %; the air entrainment observed, again compared to the value observed in the absence of the SA, yields a second value of air recovery by the SA and is illustrated as ‘F’ in FIG. 8.
For the relative performance rating of the group of products chosen as potential SA and listed in Table 36, the following rating scheme (Tables A and B) was adopted (referring to FIG. 8 and quantities defined therein):
1: Chemical name of compound tested as potential sacrificial agent • Col. 2: Level of air entrainment by the candidate sacrificial agent, at a concentration of 0.1 wt %, in a Portland cement paste ([…]) • Col. […] 5: Sacrificial agent overall rating index (described below) • Col. 6: Hydrophilic-Lipophilic Balance (HLB) values of candidate sacrificial agent (source and significance of HLB data given below) • Col. 7: Logarithm of the Oil(octanol)/water partition coefficient (Kow) of the candidate sacrificial agents (source and significance of data given below).

[1] = Portland cement paste (PCA), […]
[2] = sacrificial agent overall rating index
[3] = B1 FA/cement paste, 0.0125 wt % DDBS, 0.05 wt % SA
[4] = B1 FA/cement paste, 0.0125 wt % DDBS, 0.10 wt % SA
[5] = sum of ratings of air entrainment recovery by 0.05% and 0.1% SA, DDBS 0.0125 wt %, 50:50 B1 fly ash:cement paste

Row | Compound | B1 + 0.0125% DDBS + 0.05% SA (air entrainment) (B1 FA/cement paste, […]) | B1 + 0.0125% DDBS + 0.1% SA (air entrainment) (B1 FA/cement paste, […]) | PCA + 0.1% SA (level of air entrainment by the candidate sacrificial agent) [1] | SA Rating (0-4) [2] | Overall performance rating (second protocol rating) | other results
1 | CC(O)CO (centres unmarked) [Propylene Glycol] | 3.0 | 3.6 | 0.5 | 0 |  | 
2 | CC1COC(=O)O1 (centres unmarked) [Propylene carbonate] |  |  | 0.4 | 0 |  | B1 + 0.0125% DDBS + 0.05% SA (air entrainment) [3]: 2.5; B1 + 0.0125% DDBS + 0.1% SA (air entrainment) [4]: 2.9
3 | O=C([O-])c1ccccc1O.[Na+] [Sodium Salicylate] |  |  |  |  |  | B1 + 0.0125% DDBS + 0.05% SA (air entrainment): 2.9; B1 + 0.0125% DDBS + 0.1% SA (air entrainment): 3.0; PCA + 0.1% SA (level of air entrainment by the candidate sacrificial agent): 0.4; SA Rating (0-4): 0
4 | O=P([O-])([O-])O.[Na+].[Na+] [Sodium phosphate dibasic] |  |  | 0.0 | 0 |  | B1 + 0.0125% DDBS + 0.05% SA (air entrainment) [3]: 2.1; B1 + 0.0125% DDBS + 0.1% SA (air entrainment) [4]: 2.3
5 | O=P(O)(O)OP(=O)(O)OP(=O)(O)O [Sodium tripolyphosphate] |  |  | 0.2 | 0 |  | B1 + 0.0125% DDBS + 0.05% SA (air entrainment) [3]: 2.2; B1 + 0.0125% DDBS + 0.1% SA (air entrainment) [4]: 1.9
6 | OC[C@@H](O)[C@@H](O)[C@H](O)[C@@H](O)CO [Sorbitol] | 2.2 | 4.2 | 0.5 | 1 | 1 | 
7 | CCCC[N+](CCCC)(CCCC)CCCC.[Cl-] [Tetrabutyl ammonium chloride] |  |  |  |  | 3 | B1 + 0.0125% DDBS + 0.05% SA (air entrainment): 4.9; B1 + 0.0125% DDBS + 0.1% SA (air entrainment): 4.1; PCA + 0.1% SA (level of air entrainment by the candidate sacrificial agent): 0.6; SA Rating (0-4): 3
8 | CC[N+](CC)(CC)CC.[OH-] [Tetraethyl ammonium hydroxide] |  |  |  |  |  | B1 + 0.0125% DDBS + 0.05% SA (air entrainment): 2.3; B1 + 0.0125% DDBS + 0.1% SA (air entrainment): 3.0; PCA + 0.1% SA (level of air entrainment by the candidate sacrificial agent): 0.1; SA Rating (0-4): 0
9 | CC(O)CN(CC(C)O)CC(C)O (centres unmarked) [Tri-iso-propanolamine] |  |  |  |  | 4 | 
10 | CC(O)CN(CC(C)O)CC(C)O (centres unmarked) [Tri-isopropanolamine] | 5.6 | 7.6 | 1.3 | 4 |  | 
11 | CCN(CC)CC [Triethylamine] |  |  |  |  | 4 | B1 + 0.0125% DDBS + 0.05% SA (air entrainment): 5.2; B1 + 0.0125% DDBS + 0.1% SA (air entrainment): 5.1; PCA + 0.1% SA (level of air entrainment by the candidate sacrificial agent): 0.5; SA Rating (0-4): 4
12 | CCCN(CCC)CCC [Tripropylamine] | 2.6 | 2.4 | 0.3 | 0 |  | 
13 | NC(N)=O [Urea] |  | 2.0 | 0.1 | 2 | 2 | 
14 | CC(C)O [i-Propanol] | 3.7 | 4.1 | 2.4 | 1 | 1 | 
15 | CCCO [n-Propanol] |  |  |  |  | 1 | B1 + 0.0125% DDBS + 0.05% SA (air entrainment): 3.5; B1 + 0.0125% DDBS + 0.1% SA (air entrainment): 4.4; PCA + 0.1% SA (level of air entrainment by the candidate sacrificial agent): 2.0; SA Rating (0-4): 1
16 | C=CN1CCCC1=O [n-Vinyl-2-pyrrolidinone] | 3.7 | 4.3 | 2.8 | 1 | 1 | 

Row | Compound | B1 + 0.0125% DDBS + 0.05% SA (air entrainment) (B1 FA/cement paste, […]) | B1 + 0.0125% DDBS + 0.1% SA (air entrainment) (B1 FA/cement paste, […]) | PCA + 0.1% SA (level of air entrainment by the candidate sacrificial agent) [1] | SA Rating (0-4) [2] | Overall performance rating (second protocol rating) | other results
17 | CCCCN [n-butyl amine] | 5.7 | 8.1 | 1.2 | 4 | 4 | 
18 | CCCCNC(N)=O [n-butyl urea] |  |  | 2.1 | 4 |  | B1 + 0.0125% DDBS + 0.05% SA (air entrainment) [3]: 5.3; B1 + 0.0125% DDBS + 0.1% SA (air entrainment) [4]: 7.5; Overall performance rating (second protocol rating) [5]: 4
19 | COc1ccc(OC)cc1 [p-Dimethoxybenzene] | 4.7 | 4.0 | 0.7 | 2 | 2 | 
20 | Cc1ccc(S(=O)(=O)O)cc1 [p-Toluene Sulfonic acid] | 3.9 | 5.1 | 0.7 | 3 | 3 | 
21 | CC(C)(C)O [t-Butanol] |  |  |  |  | 4 | 
22 | CC(C)(C)O [tert-Butanol] | 6.3 | 7.0 | 0.8 | 4 |  | 
23 | OCCOCCOCCO [tri-Ethylene Glycol] | 3.1 | 4.1 | 0.9 | 1 | 1 | 
24 | CC(O)COC(C)COC(C)CO (centres unmarked) [tri-Propylene glycol] | 7.8 | 9.2 | 1.6 | 4 | 4 | 
25 | Aniline (Phenylamine) | 3.7 | 5.6 | 1.7 | 2 |  | 
26 | Methylnaphthalene sulfonate Na |  |  |  |  |  | Overall performance rating (second protocol rating) [5]: 4
27 | P(EG-ran-propylene-glycol) 2500 |  |  |  |  | 4 | 
28 | POE (20) Sorbitan monolaurate [Tween®] |  |  |  |  |  | Overall performance rating (second protocol rating) [5]: 4
29 | Polyethylene glycol 400 |  |  |  |  |  | Overall performance rating (second protocol rating) [5]: 4
30 | Polyethylene glycol 2000 |  |  |  |  |  | Overall performance rating (second protocol rating) [5]: 4
31 | Polypropylene glycol 425 |  |  |  |  |  | Overall performance rating (second protocol rating) [5]: 4
32 | Tetramethyl ammonium hydroxide |  |  |  |  |  | B1 + 0.0125% DDBS + 0.05% SA (air entrainment): 2.5; B1 + 0.0125% DDBS + 0.1% SA (air entrainment): 2.9; PCA + 0.1% SA (level of air entrainment by the candidate sacrificial agent): 0.1; SA Rating (0-4): 0
